Read-outs that look alike come from different tables or passages of the source.
Key:
bloodstream T. brucei = test: Trypanosome proliferation inhibition assay (GI50); type: cell-based, Trypanosoma brucei brucei; settings: for Selectivity Index HL GI50/Tbb GI50: ratio between HeLa and T. brucei GI50
Description: T. brucei (brucei or rhodesiense) were seeded at 4 × 10^3 cells/mL in 24-well plates (0.5 or 1 mL of culture per well). […] Then, at least five drug concentrations[26] covering this range was used for subsequent assays. Each concentration was tested in duplicate. […] Cells were counted only if they were motile. […] Final mean GI50 values were calculated based on two independent experiments, each with at least five data points performed in duplicate. T. brucei were seeded at 4 × 10^3 cells/mL and dispensed into wells of a 384-well black plate (Greiner; Frickenhausen, Germany). Wells in two columns per plate were filled with 50 μL of HMI-9 medium using a Multidrop Combi (Thermo Scientific; Waltham, MA) to serve as a background control. Fifty microliters of trypanosome suspension was added to separate columns using a Multidrop Combi. Lastly, an additional 50 μL of cell resuspension was added to only the top row of wells that contained cells (row A, labeled by Greiner), using an Xplorer multichannel pipette (Eppendorf; Hamburg-Eppendorf, Germany) bringing final volumes of cell-containing wells in the top row to 100 μL. […] St. Louis, MO). A microliter of DMSO (25%) or diluted drug was added to wells containing cells of the top row using an Xplorer multichannel pipette. Each concentration was tested in duplicate. Cells and DMSO/drug were mixed and serially diluted 1:2 down the rows of the plate. […] Cells were lysed by addition of 15 μL of SYBR Green I (Invitrogen; Carlsbad, CA) in lysis solution[30] (5X SYBR Green I, 30 mM Tris pH 7.5, 7.5 mM EDTA, 0.012% saponin and 0.12% Triton X-100) to each well. […] Data collected was exported to Excel from Ascent Software (Thermo Scientific). Base-line corrected non-linear regression graphs were generated and GI50 values determined using GraphPad Prism (GraphPad Software; La Jolla, CA). Final mean GI50 values were calculated based on four separate biological replicates.

[1] = Normalized body weight of treated T. brucei-infected mice; type: in vivo; settings: oral 2 (20 mg/kg) or 3 (25 mg/kg)
Description: Formulated compounds or vehicle control (0.2% HPMC) were administered by oral gavage starting 24 h after mouse infection with T. brucei[33][34]. Animals were weighed before each compound administration, and dose volume was adjusted based on body weight (10 mL/kg) to deliver accurate doses of test compounds. The treatment was ceased for animals when normalized body weight (NBW) loss exceeded 20%, and resumed after NBW recovery above 90%. […] 1: 30 mg/kg or 40 mg/kg, treatment regimen of “4 days on/2 days off” for a total of 14 doses; 2: 20 mg/kg (days 2–5), 10 mg/kg (day 7), 5 mg/kg (days 8–9), no drug (day 6, days 10–13); 3: 25 mg/kg (days 2–5), 12.5 mg/kg (day 7), 6.25 mg/kg (days 8–10), no drug (day 6, days 11–13). Scheduled euthanasia by CO2 overdose followed by incision to form a bilateral pneumothorax was conducted on mice considered cured 30 days after the end of experimental treatment (see previous section). Mice with parasitemia greater than 2 × 10^8 trypanosomes/mL or NBW losses ≥30% were subjected to unscheduled euthanasia.

T. brucei [2] = test: Mouse model of HAT: oral treatment of T. brucei-infected mice; type: in vivo, Trypanosoma brucei brucei; settings: for survival of infected mice compared to control untreated animals: administered orally; for reduction of parasitemia: day six, after full oral dose days two to five (2: 20 mg/kg, 3: 25 mg/kg); for increase in average survival: infected mice treated orally, versus vehicle (5 days on average); for cure of T. brucei infection in mice: oral administration
Description: Cultured T. brucei were pelleted and resuspended in cold phosphate buffered saline (PBS) containing 1% glucose at 1 × 10^5 cells/mL. Female Swiss-Webster mice (8–10 weeks old, 20–25 g, n = 4 per group) (Harlan; Indianapolis, IN) were infected intraperitoneally (i.p.) with 10^4 bloodstream trypanosomes in 100 μL of PBS using 26G needles. To avoid damage to T. brucei cells, mechanical stress during administration was minimized by avoiding repeated pulling and pushing movements of cell resuspension through the syringe needle. Starting 48 h post-infection, and every 1–8 days thereafter, parasitemia was monitored by collecting 3 μL of blood from the tail vein of mice. Blood samples were supplemented with 21 μL of RBC Lysis Solution (Qiagen; Valencia, CA) and incubated at room temperature for 15–45 min. prior to observing for parasites using a Neubauer Bright-line hemocytometer. Mice with parasitemia greater than 2 × 10^8 trypanosomes/mL were euthanized. […] To compare animal survival in treatment and vehicle control groups, Student’s t-test was performed in Excel to generate p-values. All animal experiments were conducted with the approval of the Institutional Animal Care and Use Committee (IACUC) at the University of Georgia. All experimental protocols involving animals were carried out in accordance with the approved guidelines of the IACUC at the University of Georgia.
Formulated compounds or vehicle control (0.2% HPMC) were administered by oral gavage starting 24 h after mouse infection with T. brucei. Animals were weighed before each compound administration, and dose volume was adjusted based on body weight (10 mL/kg) to deliver accurate doses of test compounds. The treatment was ceased for animals when normalized body weight (NBW) loss exceeded 20%, and resumed after NBW recovery above 90%. […] 1: 30 mg/kg or 40 mg/kg, treatment regimen of “4 days on/2 days off” for a total of 14 doses; 2: 20 mg/kg (days 2–5), 10 mg/kg (day 7), 5 mg/kg (days 8–9), no drug (day 6, days 10–13); 3: 25 mg/kg (days 2–5), 12.5 mg/kg (day 7), 6.25 mg/kg (days 8–10), no drug (day 6, days 11–13). Scheduled euthanasia by CO2 overdose followed by incision to form a bilateral pneumothorax was conducted on mice considered cured 30 days after the end of experimental treatment (see previous section). Mice with parasitemia greater than 2 × 10^8 trypanosomes/mL or NBW losses ≥30% were subjected to unscheduled euthanasia.

T. b. rhodesiense = test: Trypanosome proliferation inhibition assay (GI50), T. b. rhodesiense; type: cell-based; settings: Trypanosoma brucei, 4 × 10^3 cells/mL, 24-well plates, 48 h, read-out: Growth inhibition (GI50) ± SD T. b. rhodesiense
Description: T. brucei (brucei or rhodesiense) were seeded at 4 × 10^3 cells/mL in 24-well plates (0.5 or 1 mL of culture per well). […] Compounds were initially tested at 10 nM, 100 nM or 1 μM, to define a range where cell density responded to drug concentrations. Then, at least five drug concentrations[26] covering this range was used for subsequent assays. Each concentration was tested in duplicate. Cell density was determined with a Neubauer Bright-Line hemocytometer (Sigma) after 48 h. Cells were counted only if they were motile. […] Final mean GI50 values were calculated based on two independent experiments, each with at least five data points performed in duplicate.

HeLa cells = test: HeLa cell proliferation inhibition assay (GI50); type: cell-based; settings: Homo sapiens; HeLa 1 × 10^5 cells/mL, 24 h with compound; read-out: Growth inhibition (GI50) ± SD HeLa
Description: HeLa cells were seeded to 1 × 10^5 cells/mL in 24-well plates (1 mL of culture per well) and incubated drug-free for 24 h at 37 °C, 5% CO2. DMSO or stock inhibitor concentration (5 μL) was added to obtain the specified final concentrations. Cells were incubated for 24 h[28][29] at 37 °C, 5% CO2. Next, cells were trypsinized and cell density was determined with a Neubauer Bright-line hemocytometer as described[9]. GI50 for each compound was calculated by plotting data for the cell counts in Excel as described for T. brucei above. Data were obtained from two independent experiments, four separate biological replicates.

[3] = ref Cleveland BioLabs, unpublished data; cited from earlier work
T. brucei [4] = test: Thirty-hour treatment of trypanosomes: cell density, kinetoplast/nucleus copy number, DNA content; type: cell-based, Trypanosoma brucei brucei; settings: 200 nM
Description: At stated times trypanosome density was determined using a Z2 Coulter Counter (Beckman). […] At the same time-points a 5 mL aliquot (5 × 10^5–1 × 10^7 cells total) was collected and analyzed by flow cytometry as described below. All data reported were obtained from three independent experiments.
T. brucei (between 5 × 10^5 cells to 1 × 10^7 cells) in 5 mL of culture medium were centrifuged (3 min, 3000 × g at room temperature) to pellet cells and washed once with 1 mL of PBS containing 10 mM glucose. Cells were fixed in 1 mL of 70% methanol supplemented by PBS at 4 °C for up to two weeks, centrifuged (3 min, 2000 × g at room temperature), and resuspended at 5 × 10^5 cells/mL in 1X PBS. RNase A and propidium iodide (PI) were added to each sample to final concentrations of 500 μg/mL and 7.5 μM, respectively, and the suspension was protected from light during incubation for 1 h at 37 °C[35]. Samples were placed on ice for 15 min and data was immediately collected on a CyAn ADP Analyzer (Beckman Coulter; Hialeah, FL). During analysis with FlowJo software (FlowJo, LLC; Ashland, OR), trypanosomes were gated from background debris by plotting “events” as forward scatter vs. side scatter (both on the logarithmic scale). Single trypanosomes were gated for cell cycle analysis from cells stuck together (“doublets”) by plotting trypanosome events as PI fluorescence vs. pulse width. Distribution of trypanosomes into groups containing different amounts of chromosomal DNA was performed using Watson-Pragmatic algorithm in FlowJo. DNA distribution values from independent experiments were averaged with error bars generated and graphed in Excel. To compare effects of drug treatment on DNA content of experimental and vehicle control groups, Student’s t-test was performed in Excel to generate p-values.

[5] = Trypanosoma brucei, against T. brucei, read-out: GI50
[6] = Trypanosoma brucei, 48 h, T. brucei 4 × 10^3 cells/mL, 48 h, Fig. 1, read-out: GI50
[7] = Trypanosoma brucei, 48 h, 4 × 10^3 cells/mL, 24-well plates, 48 h, Table 1, read-out: Growth inhibition (GI50) ± SD T. b. brucei

`CN(C)CCCn1c2ccccc2c2cnccc21` [CBL0144] showed a GI50 (bloodstream T. brucei; [5]) of over 10000 nM.

Work on `CCCNCCCn1c2ccc(C(C)=O)cc2c2c3c(ccc21)C(=O)CC3` [CBL0175] yielded a GI50 (bloodstream T. brucei; [6]) of 9.5 ± 1.4 nM.

For `CCN(CC)CCn1c2ccc(C3=NCCN3)cc2c2cc(C3=NCCN3)ccc21` [CBL0030], the GI50 (bloodstream T. brucei; [6]) was 1500 ± 210 nM.

With `CCOC(=O)N1CCC(n2c3ccc(C(C)=O)cc3c3cc(C(C)=O)ccc32)CC1` [CBL0149] the GI50 (bloodstream T. brucei; [6]) was 5300 ± 1500 nM.

For `CC(=O)c1cc2c3cc(C(C)=O)c(O)cc3n(CCCN(C)C)c2cc1O` [CBL0174], the GI50 (bloodstream T. brucei; [6]) was 25 ± 1.9 nM.

For `CCCNCCCn1c2ccc3c(c2c2c4c(ccc21)C(=O)CC4)CCC3=O` [Compound 3], the GI50 (bloodstream T. brucei; [7]) was 2.2 ± 0.1 nM, the GI50 (bloodstream T. brucei; [6]) was under 10 nM and the “Selectivity Index HL GI50/Tbb GI50” value (bloodstream T. brucei) was 236. The “weight loss of normal body weight (NBW)” value [1] was “exceeding 10%”, the “survival of infected mice compared to control untreated animals” value (T. brucei [2]) was “increased survival” and the reduction of parasitemia (T. brucei [2]) was 100 fold. For the same molecule, the “increase in average survival” value (T. brucei [2]) was 2 fold, the “cure of T. brucei infection in mice” value (T. brucei [2]) was “failed to cure” and the GI50 (T. b. rhodesiense) was 3.6 ± 0.3 nM. The GI50 (HeLa cells) was 520 ± 40 nM and the oral bioavailability [3] was “orally bioavailable”.

`CCN(CC)CCn1c2ccc(C#N)cc2c2cc(C#N)ccc21` [CBL0018] showed a GI50 (bloodstream T. brucei; [6]) of 250 ± 20 nM.

With `CC(=O)c1ccc2c(c1)c1c3c(ccc1n2CC[C@@H]1CCCN1C)C(=O)CC3` [CBL0211] the GI50 (bloodstream T. brucei; [6]) was 2.3 ± 0.58 nM.

`O=C1CCc2c1ccc1c2c2c3c(ccc2n1CCN1CCOCC1)C(=O)CC3` [CBL0207] showed a GI50 (bloodstream T. brucei; [6]) of 17 ± 0.2 nM.

With `CCNCCCn1c2ccc3c(c2c2c4c(ccc21)C(=O)CC4)CCC3=O` [CBL0198] the GI50 (bloodstream T. brucei; [6]) was 2.8 ± 0.49 nM.

In the case of `CCN(CC)CCn1c2ccc(C(C)=O)cc2c2cc(C(C)=O)ccc21` [CBL0014], the GI50 (bloodstream T. brucei; [6]) is reported as 76 ± 20 nM.

With `CC(=O)c1ccc2c(c1)c1cc(C(C)=O)ccc1n2CCC1CCCN1C` (stereo not shown) [CBL0053] the GI50 (bloodstream T. brucei; [6]) was 58 ± 5.3 nM.

In the case of `CC(=O)c1cc2c3cc(C(C)=O)c(O)cc3n(CCNC(C)C)c2cc1O` [CBL0187], the GI50 (bloodstream T. brucei; [6]) is reported as 33 ± 2.1 nM.

`CON=C1CCc2c1ccc1c2c2c3c(ccc2n1CCN1CCOCC1)C(=NOC)CC3` [CBL0209] gave a GI50 (bloodstream T. brucei; [6]) of 460 ± 18 nM.

`CCN(CC)CCCC(C)n1c2ccc3c(c2c2c4c(ccc21)C(=O)CC4)CCC3=O` (stereo not shown) [CBL0100Q] gave a GI50 (bloodstream T. brucei; [6]) of 240 ± 2 nM.

For `CN(C)CCCn1c2ccc3c(c2c2c4c(ccc21)C(=O)CC4)CCC3=O` [CBL0253], the GI50 (bloodstream T. brucei; [6]) was 0.74 ± 0.27 nM.

For `CC(=O)c1cc2c3c4c(ccc3n(CCCN(C)C)c2cc1O)C(=O)CC4` [Compound 2], the GI50 (bloodstream T. brucei; [7]) was 7.4 ± 0.2 nM, the GI50 (bloodstream T. brucei; [6]) was under 10 nM and the “Selectivity Index HL GI50/Tbb GI50” value (bloodstream T. brucei) was 78. For the same molecule, the “weight loss of normal body weight (NBW)” value [1] was “exceeding 10%”, the “survival of infected mice compared to control untreated animals” value (T. brucei [2]) was “increased survival” and the reduction of parasitemia (T. brucei [2]) was 100 fold. The “increase in average survival” value (T. brucei [2]) was 2 fold, the “cure of T. brucei infection in mice” value (T. brucei [2]) was “failed to cure” and the GI50 (T. b. rhodesiense) was 13 ± 3 nM. For the same molecule, the GI50 (HeLa cells) was 580 ± 100 nM and the oral bioavailability [3] was “orally bioavailable”.

With `CC[n+]1c(-c2ccccc2)c2cc(N)ccc2c2ccc(N)cc21` [ethidium bromide] the “formation of dyskinetoplastic trypanosomes (0K1N)” value (T. brucei [4]; 30 h time-course) was “produced dyskinetoplastic trypanosomes”, the “effect on nuclear DNA content compared to vehicle” value (T. brucei [4]; 30 h treatment, flow cytometry) was “little or no effect” and the “increase in cell density during 30 h treatment” value (T. brucei [4]; T. brucei seeded 1 × 10^5 cells/mL) was 2.5 fold.

`CCN(CC)CCn1c2ccc3c(c2c2c4c(ccc21)C(=O)CC4)CCC3=O` [CBL0100] gave a GI50 (bloodstream T. brucei; [6]) of 0.97 ± 0.08 nM.

For `CC(=O)c1ccc2c(c1)c1cc(C(C)=O)ccc1n2CCCN(C)C` [CBL0031], the GI50 (bloodstream T. brucei; [6]) was 260 ± 0.64 nM.

For `CC(=O)c1ccc2c(c1)c1cc(C(C)=O)ccc1n2CCCNC(C)C` [CBL0127], the GI50 (bloodstream T. brucei; [6]) was 170 ± 3 nM.

For `CC(C)NCCn1c2ccc3c(c2c2c4c(ccc21)C(=O)CC4)CCC3=O` [CBL0197], the GI50 (bloodstream T. brucei; [6]) was 0.95 ± 0.05 nM.

`CC(=O)c1ccc2c(c1)c1c3c(ccc1n2CCNC(C)C)C(=O)CC3` [CBL0252] showed a GI50 (bloodstream T. brucei; [6]) of 8.5 ± 0.22 nM.

`CC(=O)c1cc2c3c4c(ccc3n(CCCN(C)C)c2cc1O)C(=O)N(C)C4` [CBL0167] showed a GI50 (bloodstream T. brucei; T. brucei 4 × 10^3 cells/mL, 48 h, Fig. 1, read-out: GI50) of 21 ± 2.9 nM and a GI50 (bloodstream T. brucei; [6]) of under 25 nM.

Work on `CCN(CC)CCn1c2ccccc2c2cnccc21` [CBL0139] yielded a GI50 (bloodstream T. brucei; [5]) of over 10000 nM.

With `CC(=O)c1ccc2c(c1)c1c3c(ccc1n2CC[C@H]1CCCN1C)C(=O)CC3` [CBL0212] the GI50 (bloodstream T. brucei; [6]) was 8.2 ± 0.23 nM.

From PMC5000474, “Discovery of a Carbazole-Derived Lead Drug for Human African Trypanosomiasis” (Scientific Reports, 2016)
